According to patent US8524194B2, “Radiolabelled MMP selective compounds” (Academisch Medisch Centrum Bij de Universiteit van Amsterdam, priority 2008, dated 2013):

Legend:
MMP-9 = MMP-9 (Homo sapiens, UniProt P14780); assay: in vitro MMP inhibition, MMP-9; format: biochemical; details: preliminary results
MMP-1 = biological target: T1, MMP-1 (Homo sapiens, UniProt P03956); assay: in vitro MMP inhibition, MMP-1; format: biochemical; details: preliminary results
T1 sequence (P03956 100-469): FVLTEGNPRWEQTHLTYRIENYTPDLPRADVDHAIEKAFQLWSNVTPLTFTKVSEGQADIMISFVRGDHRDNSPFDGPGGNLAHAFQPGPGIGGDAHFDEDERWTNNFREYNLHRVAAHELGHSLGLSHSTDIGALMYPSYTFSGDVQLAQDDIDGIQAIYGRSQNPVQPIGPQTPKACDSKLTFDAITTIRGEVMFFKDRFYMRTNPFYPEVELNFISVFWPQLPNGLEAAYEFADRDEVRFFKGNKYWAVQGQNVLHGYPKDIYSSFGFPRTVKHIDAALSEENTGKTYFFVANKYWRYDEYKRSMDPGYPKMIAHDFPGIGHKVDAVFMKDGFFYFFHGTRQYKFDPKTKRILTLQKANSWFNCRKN

MMP-2 = biological target: T2, MMP-2 (Homo sapiens, UniProt P08253); assay: in vitro MMP inhibition, MMP-2; format: biochemical; details: preliminary results
T2 sequence (P08253 110-660): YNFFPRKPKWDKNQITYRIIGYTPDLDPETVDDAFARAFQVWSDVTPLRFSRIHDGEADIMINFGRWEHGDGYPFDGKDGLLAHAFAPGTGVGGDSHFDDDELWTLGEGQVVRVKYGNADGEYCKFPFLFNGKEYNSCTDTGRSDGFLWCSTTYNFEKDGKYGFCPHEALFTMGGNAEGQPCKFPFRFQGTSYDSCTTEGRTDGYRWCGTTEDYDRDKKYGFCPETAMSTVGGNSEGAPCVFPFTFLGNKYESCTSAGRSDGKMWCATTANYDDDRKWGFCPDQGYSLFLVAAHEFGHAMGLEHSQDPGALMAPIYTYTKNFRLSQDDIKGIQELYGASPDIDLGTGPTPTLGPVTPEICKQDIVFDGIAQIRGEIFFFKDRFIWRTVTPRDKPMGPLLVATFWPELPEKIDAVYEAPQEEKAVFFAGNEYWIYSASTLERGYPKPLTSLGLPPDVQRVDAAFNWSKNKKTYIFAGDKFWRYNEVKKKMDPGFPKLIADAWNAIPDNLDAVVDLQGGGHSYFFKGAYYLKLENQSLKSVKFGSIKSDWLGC

[1] = tissue biodistribution after intravenous administration; format: in vivo, CL57/BL6 mice; details: i.v.
Method: Because the in vitro studies gave promising results, preliminary in vivo studies were performed using the CL57/BL6 mice (8 weeks old). The tissue distribution of [^123I]8 (which is representative for the radioisotopes with alternative halogens), after intravenous administration, was determined at three time points. […] This is regular pharmacokinetic behaviour of a radiotracer.
The extended biodistribution studies were performed using the CL57/BL6 mice (8 weeks old). Here the tissue distribution of [^123I]8, after intravenous administration was determined at 9 time points (up to 24 hours p.i.).

[2] = system: atherosclerotic plaques (MMP-2); assay: binding to atherosclerotic plaques in the aortic sinus, storage phosphor imaging; format: in vivo; details: ApoE−/− mice on Western Type diet, i.v., three hours after injection, FIG. 3
Method: Four month old ApoE−/− mice were given a Western Type diet (cat nr. 4021.06; Arie Blok Diervoeding, Woerden, the Netherlands), during one month to stimulate atherogenesis. On the last day of the experiment the radiolabeled MMP-2 antagonist was given by intravenous injection. Three hours after injection, the mice were harvested and the aortic sinus area was analysed overnight using a storage phosphor imaging technique for binding of the MMP2 antagonist.

[3] = CL57/BL6 mice 8 weeks old, three time points, FIG. 1

Sequence of MMP-9 (P14780 94-707, species assumed): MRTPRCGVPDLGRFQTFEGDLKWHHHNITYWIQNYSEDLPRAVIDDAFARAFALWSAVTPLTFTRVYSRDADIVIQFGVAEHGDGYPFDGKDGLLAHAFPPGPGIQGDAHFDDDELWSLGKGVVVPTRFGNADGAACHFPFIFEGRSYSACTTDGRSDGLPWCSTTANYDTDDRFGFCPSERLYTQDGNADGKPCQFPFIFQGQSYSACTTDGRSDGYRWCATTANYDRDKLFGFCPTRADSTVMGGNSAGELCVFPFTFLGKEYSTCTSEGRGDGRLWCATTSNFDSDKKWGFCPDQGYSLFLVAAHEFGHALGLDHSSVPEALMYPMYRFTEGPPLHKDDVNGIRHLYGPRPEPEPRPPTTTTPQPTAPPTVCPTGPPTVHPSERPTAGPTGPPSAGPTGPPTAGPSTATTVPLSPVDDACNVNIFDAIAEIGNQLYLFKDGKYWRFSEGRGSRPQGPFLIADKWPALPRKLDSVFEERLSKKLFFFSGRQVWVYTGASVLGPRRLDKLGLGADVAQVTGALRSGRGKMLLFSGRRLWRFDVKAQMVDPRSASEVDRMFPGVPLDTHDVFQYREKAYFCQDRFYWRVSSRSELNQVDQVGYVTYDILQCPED

SMILES | IC50 (MMP-9) [nM] | IC50 (MMP-1) [nM] | IC50 (MMP-2) [nM] | liver uptake [1, 3] | route of excretion [1, 3] | thyroid uptake (de-iodination in vivo) [1, 3] | re-uptake in liver and kidney ([1]; CL57/BL6 mice, 9 time points up to 24 hours p.i., FIG. 2) | radioactivity in the aortic sinus [2]
O=C(O)CN(CC(=O)NO)S(=O)(=O)c1ccc(Oc2ccc(Br)cc2)cc1 [Compound 6d, {[4-(4-Bromo-phenoxy)-benzenesulphonyl]-hydroxycarbamoylmethyl-amino}-acetic acid] | 1.95 ± 1.1 | 910 ± 560 | 0.87 ± 0.4 |  |  |  |  | 
O=C(O)CN(CC(=O)NO)S(=O)(=O)c1ccc(Oc2ccc(I)cc2)cc1 [Compound 6e, {[4-(4-Iodo-phenoxy)-benzenesulphonyl]-hydroxycarbamoylmethyl-amino}-acetic acid] | 1.61 ± 1.41 | 1320 ± 790 | 7.64 ± 1.43 |  |  |  |  | 
O=C(O)CN(CC(=O)NO)S(=O)(=O)c1ccc(Oc2ccc(F)cc2)cc1 [Compound 6b, {[4-(4-Fluoro-phenoxy)-benzenesulphonyl]-hydroxycarbamoylmethyl-amino}-acetic acid] | 0.27 ± 0.15 | 4690 ± 2220 | 0.13 ± 0.03 |  |  |  |  | 
O=C(O)CN(CC(=O)NO)S(=O)(=O)c1ccc(Oc2ccc([123I])cc2)cc1 [[^123I]8, {[4-(4-[^123I]Iodophenoxy)-benzenesulphonyl]-hydroxycarbamoylmethyl-amino}-acetic acid] |  |  |  | taken up intensively into the liver | excreted mainly via the urinary tract | very low uptake in the thyroid | A little re-uptake was observed in the liver and kidney after 3 and 6 hours respectively | Increased radioactivity was observed in the aortic sinus of the heart
O=C(O)CN(CC(=O)NO)S(=O)(=O)c1ccc(Oc2ccccc2)cc1 [Compound 6a, {[4-Phenoxy-benzenesulphonyl]-hydroxycarbamoylmethyl-amino}-acetic acid] | 4.31 ± 2.06 | 1670 ± 980 | 1.89 ± 1.11 |  |  |  |  | 
